Laboratory results reported in US20150342985A1, “COMPOSITIONS COMPRISING LITHIUM” (priority 2012, published 2015).

Assay: Lithium isotope levels in post-mortem neocortex (BA7), quadrupole inductively coupled plasma mass spectroscopy
Description: Lithium (Li) isotope levels have been measured in post-mortem neocortex (BA7) of human subjects having bipolar disorder, without having bipolar disorder receiving lithium treatment at time of death. Neurologically intact individuals and subjects with schizophrenia were included as controls.
Bipolar brains show a 4% shift away from 7-Li within the total lithium content. Similar fractionation is not seen in schizophrenia or neurologically intact controls.

SMILES	shift away from 7-Li within the total lithium content (bipolar brains, FIG. 2, deviation from environmental distribution)	fractionation (shift away from 7-Li) in brain (schizophrenia or neurologically intact controls)	brain penetration (relative to Li-7, stated as applicants' discovery)
[7Li] [7-Li]	4%	not seen	
[6Li] [Li-6]			better able to penetrate the brain
